According to publication PMC9820316, “Novel Arylpiperazine Derivatives of Salicylamide with α1-Adrenolytic Properties Showed Antiarrhythmic and Hypotensive Properties in Rats” (International Journal of Molecular Sciences, 2022):
Marks after values point to notes of the source that are not given here.

Assays:
normal ECG in rats = assay: Effect on a normal electrocardiogram in rats; type: in vivo, rat; conditions: 5 mg/kg iv; for HR—heart rate / PQ interval / QRS complex / QTc (Bazzett's formula): mean ± SD; for PQ interval / QRS complex / QTc (Bazzett's formula): in ms (unit assumed)
Description: The procedure was performed to exclude the negative effects of the tested compounds on the normal ECG, according to the method described earlier. […] Firstly, animals were anesthetized with thiopental (75 mg/kg ip). […] The influence on PQ, QTc interval, QRS complex, and heart rate was evaluated. The Bazzett’s formula: QTc = QT/√RR was used to calculate QTc. All the studied compounds were administered at a dose of 5 mg/kg.

[1] = test system: adrenaline-induced arrhythmia model in rats; assay: Therapeutic antiarrhythmic activity in adrenaline-induced arrhythmia; conditions: 5 mg/kg iv immediately after adrenaline 20 µg/kg; number of animals with event
[2] = test system: adrenaline-induced arrhythmia model in rats; assay: Prophylactic antiarrhythmic activity in adrenaline-induced arrhythmia; type: in vivo, rat; conditions: for Blocks / Bradycardia / Extrasystoles / Mortality: number of animals with event
α2-adrenergic receptors = assay: α2-adrenoceptor radioligand binding assay ([3H]-clonidine, rat cortex); conditions: rat cortex tissue, mean ± SEM, n.a. = did not bind at 10^−5 M
How it was run: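 Rat cerebral cortex membranes in 50 mM Tris-HCl pH 7.6, with 7–8 compound concentrations in duplicate. Nonspecific binding defined by 10 μM phentolamine for [3H]-prazosin (α1) or 10 μM clonidine for [3H]-clonidine (α2). Filtration and scintillation counting; Ki calculated.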

[3] = test system: aconitine-induced arrhythmia model in rats; assay: Prophylactic antiarrhythmic activity in aconitine-induced arrhythmia; type: in vivo, rat; conditions: 5 mg/kg iv 15 min before aconitine 20 μg/kg; number of animals with event
[4] = test system: calcium chloride-induced arrhythmia model in rats; assay: Prophylactic antiarrhythmic activity in calcium chloride-induced arrhythmia; type: in vivo, rat; conditions: 5 mg/kg iv 15 min before calcium chloride 140 mg/kg; number of animals with event
normotensive rats = assay: Influence on blood pressure in the normotensive rats; type: in vivo, rat; conditions: for DBP—diastolic blood pressure / SBP—systolic blood pressure: mean ± SD
How it was run: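 Anaesthetised (thiopental 75 mg/kg ip) normotensive Wistar rats with right carotid artery cannulated for direct pressure recording. Compounds given iv after 15 min stabilisation. Systolic and diastolic blood pressure were monitored.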

[5] = 0 min (prior to administration)
[6] = 0.25 mg/kg iv 15 min before adrenaline 20 μg/kg
[7] = 0.5 mg/kg iv 15 min before adrenaline 20 μg/kg
[8] = 1 mg/kg iv 15 min before adrenaline 20 μg/kg
[9] = 2.5 mg/kg iv, 0 min (before administration)
[10] = 5.0 mg/kg iv, 0 min (before administration)

## Cl.NC(=O)c1ccccc1OCCCCCCN1CCN(c2cccc(Cl)c2)CC1 [JJGW03, 2-{6-[4-(3-chlorophenyl)piperazin-1-ylo]hexoxy}benzamide hydrochloride]
Normal ECG in rats
  effect on the heart rate during the ECG recording: did not affect the heart rate
Normal ECG in rats; [5]
  HR—heart rate: 286.6 ± 45.7
  PQ interval: 41.6 ± 2.3
  QRS complex: 39.6 ± 4.7
  QTc (Bazzett's formula): 177.6 ± 12.0
Normal ECG in rats; 5 min
  HR—heart rate: 289.1 ± 20.2
  PQ interval: 41.4 ± 1.6
  QRS complex: 39.3 ± 3.9
  QTc (Bazzett's formula): 188.7 ± 16.3
Normal ECG in rats; 10 min
  HR—heart rate: 279.9 ± 15.7
  PQ interval: 40.2 ± 1.7
  QRS complex: 40.8 ± 7.1
  QTc (Bazzett's formula): 174.8 ± 7.3
Normal ECG in rats; 15 min
  HR—heart rate: 271.9 ± 18.2
  PQ interval: 40.0 ± 0.5
  QRS complex: 40.4 ± 5.2
  QTc (Bazzett's formula): 178.1 ± 15.0
[1]
  Blocks: 3/5
  Bradycardia: 1/5
  Mortality: 0/5
[2]; [6]
  Blocks: 5/5
  Bradycardia: 5/5
  Extrasystoles: 5/5
  Mortality: 4/5
[2]; [7]
  Blocks: 5/5
  Bradycardia: 4/5
  Extrasystoles: 4/5
  Mortality: 4/5
[2]; [8]
  Blocks: 4/5
  Bradycardia: 1/5
  Extrasystoles: 4/5
  Mortality: 0/5
[2]; prophylactic, iv 15 min before adrenaline 20 μg/kg, confidence limits in brackets (Litchfield and Wilcoxon)
  ED50: 0.36 (0.08–1.56) mg/kg
α2-adrenergic receptors
  Adrenergic Receptors—pKi α2: 5.76 ± 0.02
[3]
  Blocks: 6/6
  Bradycardia: 6/6
  Extrasystoles: 6/6
  Fibrillations: 6/6
  Mortality: 6/6
[4]
  Blocks: 6/6
  Bradycardia: 6/6
  Extrasystoles: 6/6
  Fibrillations: 4/6
  Mortality: 5/6
Normotensive rats; [9]
  DBP—diastolic blood pressure: 89.3 ± 15.6 mmHg
  SBP—systolic blood pressure: 123.8 ± 17.4 mmHg
Normotensive rats; 2.5 mg/kg iv, 5 min
  DBP—diastolic blood pressure: 83.3 ± 12.8 mmHg
  SBP—systolic blood pressure: 112.5 ± 13.8 mmHg
Normotensive rats; 2.5 mg/kg iv, 10 min
  DBP—diastolic blood pressure: 84.8 ± 14.7 mmHg
  SBP—systolic blood pressure: 109.8 ± 13.5 mmHg
Normotensive rats; 2.5 mg/kg iv, 20 min
  DBP—diastolic blood pressure: 86.0 ± 15.8 mmHg
  SBP—systolic blood pressure: 108.8 ± 15.6 mmHg
Normotensive rats; 2.5 mg/kg iv, 30 min
  DBP—diastolic blood pressure: 85.5 ± 14.7 mmHg
  SBP—systolic blood pressure: 111.8 ± 20.5 mmHg
Normotensive rats; 2.5 mg/kg iv, 40 min
  DBP—diastolic blood pressure: 83.7 ± 15.6 mmHg
  SBP—systolic blood pressure: 111.2 ± 22.3 mmHg
Normotensive rats; 2.5 mg/kg iv, 50 min
  DBP—diastolic blood pressure: 81.2 ± 15.0 mmHg
  SBP—systolic blood pressure: 107.7 ± 19.7 mmHg
Normotensive rats; 2.5 mg/kg iv, 60 min
  DBP—diastolic blood pressure: 79.5 ± 15.4 mmHg
  SBP—systolic blood pressure: 109.2 ± 21.9 mmHg
Normotensive rats; [10]
  DBP—diastolic blood pressure: 101.5 ± 6.1 mmHg
  SBP—systolic blood pressure: 128.5 ± 8.6 mmHg
Normotensive rats; 5 mg/kg iv, 5th min after administration
  decrease of the diastolic blood pressure: 18%
Normotensive rats; 5 mg/kg iv, 10th min after administration
  decrease of the diastolic blood pressure: 20%
Normotensive rats; 5.0 mg/kg iv, 5 min
  DBP—diastolic blood pressure: 83.2 ± 5.0 ^a mmHg
  SBP—systolic blood pressure: 108.0 ± 6.6 ^d mmHg
Normotensive rats; 5.0 mg/kg iv, 10 min
  DBP—diastolic blood pressure: 81.2 ± 4.0 ^a mmHg
  SBP—systolic blood pressure: 104.3 ± 6.3 ^d mmHg
Normotensive rats; 5.0 mg/kg iv, 20 min
  DBP—diastolic blood pressure: 82.0 ± 4.2 mmHg
  SBP—systolic blood pressure: 101.3 ± 4.5 ^d mmHg
Normotensive rats; 5.0 mg/kg iv, 30 min
  DBP—diastolic blood pressure: 83.5 ± 4.3 mmHg
  SBP—systolic blood pressure: 102.3 ± 6.9 ^d mmHg
Normotensive rats; 5.0 mg/kg iv, 40 min
  DBP—diastolic blood pressure: 85.5 ± 5.8 mmHg
  SBP—systolic blood pressure: 104.3 ± 3.9^b mmHg
Normotensive rats; 5.0 mg/kg iv, 50 min
  DBP—diastolic blood pressure: 86.7 ± 6.0 mmHg
  SBP—systolic blood pressure: 106.0 ± 7.9 ^c mmHg
Normotensive rats; 5.0 mg/kg iv, 60 min
  DBP—diastolic blood pressure: 87.5 ± 6.3 mmHg
  SBP—systolic blood pressure: 107.3 ± 6.1 ^b mmHg
Normotensive rats; 5 mg/kg iv, from the 5th to 60th min after administration
  decrease of the systolic blood pressure: 16–21%
